Results taken from patent publication US10174024B2, “5H-pyrido[3,2-B]indole compounds as anticancer agents” (BRISTOL-MYERS SQUIBB COMPANY, priority 2015, dated 2019).

Target: BRD4 (Homo sapiens, UniProt O60885)
Experiment: Time Resolved Fluorescence Resonance Energy Transfer (TR-FRET) binding assay, FRET BRD4
Conditions: one of the FRET assays described (BRD4 bromodomain construct not specified); read-out: FRET BRD4 IC50

| Compound | IC50 |
| --- | --- |
| Cc1nnn(C)c1-c1cnc2c3c(N4CCCS4(=O)=O)ccc(S(C)(=O)=O)c3n([C@H](c3ccccc3)C3CCOCC3)c2c1 [Example 19, 2-[3-(Dimethyl-1H-1,2,3-triazol-5-yl)-6-methanesulfonyl-5-[(S)-oxan-4-yl(phenyl)methyl]-5H-pyrido[3,2-b]indol-9-yl]-1λ^6,2-thiazolidine-1,1-dione] | < 1 nM |
| Cc1nnn(C)c1-c1cnc2c3c(N4CCCCS4(=O)=O)ccc(S(C)(=O)=O)c3n([C@H](c3ccccc3)C3CCOCC3)c2c1 [Example 20, 2-[3-(Dimethyl-1H-1,2,3-triazol-5-yl)-6-methanesulfonyl-5-[(S)-oxan-4-yl(phenyl)methyl]-5H-pyrido[3,2-b]indol-9-yl]-1λ^6,2-thiazinane-1,1-dione] | < 1 nM |
| Cc1nnn(C)c1-c1cnc2c3c(N4CCNCC4)ccc(S(C)(=O)=O)c3n([C@H](c3ccccc3)C3CCOCC3)c2c1 [Example 21, 1-[3-(Dimethyl-1H-1,2,3-triazol-5-yl)-6-methanesulfonyl-5-[(S)-oxan-4-yl(phenyl)methyl]-5H-pyrido[3,2-b]indol-9-yl]piperazine] | < 5 nM |
| Cc1nnn(C)c1-c1cnc2c3c(N4CCN(CC(N)=O)CC4)ccc(S(C)(=O)=O)c3n([C@H](c3ccccc3)C3CCOCC3)c2c1 [Example 22, 2-{4-[3-(Dimethyl-1H-1,2,3-triazol-5-yl)-6-methanesulfonyl-5-[(S)-oxan-4-yl(phenyl)methyl]-5H-pyrido[3,2-b]indol-9-yl]piperazin-1-yl}acetamide] | < 5 nM |
| Cc1nnn(C)c1-c1cnc2c3c(N4CCN(C5COC5)CC4)ccc(S(C)(=O)=O)c3n([C@H](c3ccccc3)C3CCOCC3)c2c1 [Example 23, 1-[3-(Dimethyl-1H-1,2,3-triazol-5-yl)-6-methanesulfonyl-5-[(S)-oxan-4-yl(phenyl)methyl]-5H-pyrido[3,2-b]indol-9-yl]-4-(oxetan-3-yl)piperazine] | < 5 nM |
| [2H]C([2H])([2H])c1nnn(C)c1-c1cnc2c3c(N4CCS(=O)(=O)CC4)ccc(S(C)(=O)=O)c3n([C@H](c3ccccc3)C3CCOCC3)c2c1 [Example 24, 4-{6-Methanesulfonyl-3-[4-(^2H3)methyl-1-methyl-1H-1,2,3-triazol-5-yl]-5-[(S)-oxan-4-yl(phenyl)methyl]-5H-pyrido[3,2-b]indol-9-yl}-1λ^6-thiomorpholine-1,1-dione] | < 5 nM |
| Cc1nnn(C)c1-c1cnc2c3c(N4CCN(C(=O)OC(C)(C)C)CC4)ccc(S(C)(=O)=O)c3n([C@H](c3ccccc3)C3CCOCC3)c2c1 [Example 25, tert-Butyl 4-[3-(dimethyl-1H-1,2,3-triazol-5-yl)-6-methanesulfonyl-5-[(S)-oxan-4-yl(phenyl)methyl]-5H-pyrido[3,2-b]indol-9-yl]piperazine-1-carboxylate] | < 5 nM |
| [2H]C([2H])([2H])c1nnn(C)c1-c1cnc2c3c(N4CCCS4(=O)=O)ccc(S(C)(=O)=O)c3n([C@H](c3ccccc3)C3CCOCC3)c2c1 [Example 26, 2-{6-Methanesulfonyl-3-[4-(^2H3)methyl-1-methyl-1H-1,2,3-triazol-5-yl]-5-[(S)-oxan-4-yl(phenyl)methyl]-5H-pyrido[3,2-b]indol-9-yl}-1λ^6,2-thiazolidine-1,1-dione] | < 1500 nM |
| [2H]C([2H])([2H])c1nnn(C)c1-c1ccc2c3ncc(-c4c(C([2H])([2H])[2H])nnn4C)cc3n(C(c3ncccc3F)C3CCOCC3)c2c1 (stereo not shown) [Example 27, 2-({3,7-Bis[4-(^2H3)methyl-1-methyl-1H-1,2,3-triazol-5-yl]-5H-pyrido[3,2-b]indol-5-yl}(oxan-4-yl)methyl)-3-fluoropyridine] | < 5 nM |
| [2H]C([2H])([2H])c1nnn(C)c1-c1ccc2c3ncc(-c4c(C([2H])([2H])[2H])nnn4C)cc3n(C(c3ncccc3F)C3CCOCC3)c2c1 (stereo not shown) [Example 28, 2-({3,7-Bis[4-(^2H3)methyl-1-methyl-1H-1,2,3-triazol-5-yl]-5H-pyrido[3,2-b]indol-5-yl}(oxan-4-yl)methyl)-3-fluoropyridine] | < 5 nM |
